Where two headings read alike, the source gives them in different places.
Assays:
PfFNT [1] = target: T1, PfFNT (Plasmodium falciparum, UniProt O77389); assay: cell-based
P. falciparum 3D7 = assay: Viability of cultured P. falciparum parasites (FACS parasitemia); type: cell-based, Plasmodium falciparum; conditions: for IC50: Plasmodium falciparum, 3D7, 48 h, read-out: IC50 (P. falciparum 3D7)
rat MCT1 = target: T2, rat MCT1 (Rattus norvegicus, UniProt P53987); assay: L-lactate transport inhibition of MCT1 expressed in yeast; type: cell-based
T2 sequence (P53987 1-494): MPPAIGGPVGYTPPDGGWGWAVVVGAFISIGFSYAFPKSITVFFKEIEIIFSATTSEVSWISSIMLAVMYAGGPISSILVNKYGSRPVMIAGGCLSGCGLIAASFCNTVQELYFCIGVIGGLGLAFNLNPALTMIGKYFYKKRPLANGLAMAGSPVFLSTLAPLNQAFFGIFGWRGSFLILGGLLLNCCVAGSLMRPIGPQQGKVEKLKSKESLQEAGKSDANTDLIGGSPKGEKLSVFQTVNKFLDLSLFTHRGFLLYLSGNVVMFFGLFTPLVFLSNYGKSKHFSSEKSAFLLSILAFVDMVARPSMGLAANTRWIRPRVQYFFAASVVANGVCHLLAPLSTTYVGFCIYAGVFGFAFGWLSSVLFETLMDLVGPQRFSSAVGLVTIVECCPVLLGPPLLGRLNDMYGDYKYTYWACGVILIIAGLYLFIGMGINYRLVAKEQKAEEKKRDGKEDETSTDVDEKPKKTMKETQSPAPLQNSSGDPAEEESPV

[2] = tested on: MMV007839 resistant 3D7 parasites; assay: microbe, parasite or virus in culture; type: cell-based, Plasmodium falciparum; conditions: for IC50: Plasmodium falciparum, 3D7, read-out: IC50 (P. falciparum resist.)
BbFNT = target: T3, BbFNT (Babesia bovis, UniProt A7AX62); assay: cell-based; conditions: wildtype BbFNT; read-out: IC50 (BbFNT / yeast)
T3 sequence (A7AX62 1-279): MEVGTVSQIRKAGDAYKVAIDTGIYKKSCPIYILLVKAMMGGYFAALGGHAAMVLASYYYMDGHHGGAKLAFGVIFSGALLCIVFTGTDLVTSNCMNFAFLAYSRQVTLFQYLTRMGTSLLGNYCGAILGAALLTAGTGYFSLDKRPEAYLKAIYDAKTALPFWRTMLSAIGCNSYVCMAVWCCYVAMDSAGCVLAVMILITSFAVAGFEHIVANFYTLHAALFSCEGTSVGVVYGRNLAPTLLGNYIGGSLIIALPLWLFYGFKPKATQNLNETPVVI

BbFNT S93G = target: T4, BbFNT S93G (Babesia bovis, UniProt A7AX62, S93G); assay: cell-based; conditions: read-out: IC50 (BbFNT S93G / yeast)
T4 sequence (A7AX62 1-279 S93G): T3 sequence (A7AX62 1-279)

PfFNT [3] = target: T1, PfFNT; assay: cell-based; conditions: for hit identification: inhibition of PfFNT transport at 10 μM: 1 mM substrate gradient, compound added 20 min prior; for inhibition at 10 µM: read-out: % Inhib.
PfFNT [4] = target: T1, PfFNT; conditions: earlier determined; read-out: affinity of lactate to PfFNT (Km); cited from earlier work
PfFNT [5] = target: T1, PfFNT; conditions: read-out: IC50 on PfFNT; cited from earlier work
[6] = IC50 (PfFNT / yeast), 20 min incubation with compound, 1 mM L-lactate
[7] = IC50 (PfFNT / yeast), half-maximal lactate transport rate, 20 min treatment

T1 sequence (O77389 whole entry): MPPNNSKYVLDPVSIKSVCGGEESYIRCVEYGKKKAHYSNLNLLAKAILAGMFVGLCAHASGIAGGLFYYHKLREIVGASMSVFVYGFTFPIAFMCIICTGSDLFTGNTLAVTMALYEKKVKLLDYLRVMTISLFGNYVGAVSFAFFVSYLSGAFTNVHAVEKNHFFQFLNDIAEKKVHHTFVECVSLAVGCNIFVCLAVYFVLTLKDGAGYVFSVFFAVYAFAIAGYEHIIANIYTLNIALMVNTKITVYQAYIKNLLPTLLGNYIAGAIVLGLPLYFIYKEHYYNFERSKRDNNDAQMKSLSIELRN

Row | Compound | IC50 (PfFNT [1]; [6]) [µM] | IC50 (P. falciparum 3D7) [µM] | other results
1 | O=C1CC(O)(C(F)F)Oc2ccccc21 (stereo not drawn) [[7]] | 280 ± 32 | – | –
2 | O/N=C1\CC(O)(C(F)(F)F)Oc2ccc(Cl)cc21 (stereo not drawn) [[6]] | 315 ± 63 | – | –
3 | CC(C)Oc1ccc2c(c1)OC(O)(C(F)(F)C(F)(F)F)CC2=O (stereo not drawn) [[14]] | 0.4 ± 0.01 | 0.1 | –
4 | COc1ccc2c(c1)OC(O)(C(F)(F)C(F)(F)C(F)(F)F)CC2=O (stereo not drawn) [[10]] | 0.25 ± 0.02 | 0.47 ± 0.1 | –
5 | COc1ccc2c(c1)OC(O)(C(F)(F)C(F)(F)F)CC2=O (stereo not drawn) [MMV007839] | – | – | Ki (PfFNT [1]): 1.4 µM; IC50 (PfFNT [1]; [7]): 0.17 µM; IC50 (PfFNT [1]; IC50 (PfFNT / yeast; 24 h treatment), compound added 24 h before the assay, last 18 h at 4°C): 0.015 µM; higher affinity than the physiological substrate lactate (PfFNT [1]; Ki versus lactate Km): > 60,000 times; re-gain of PfFNT transport activity after removal of inhibitor (dissociation) (PfFNT [1]; full and half-maximal inhibition, wash-out, up to 2 h): does not re-gain activity within 2 h; reduction of parasite growth (P. falciparum 3D7; incubation at IC90 over night): 70%; reduction of parasite growth (P. falciparum 3D7; short period incubation at IC90 for 1 h): 17%; IC50 (rat MCT1): 55 µM; IC50 [2]: 35 µM; IC50 (BbFNT): 150 µM; IC50 (BbFNT S93G): 11 µM; hit identification: inhibition of PfFNT transport at 10 μM (PfFNT [3]): fully blocked; inhibition at 10 µM (PfFNT [3]): 99.1%
6 | CCOc1ccc2c(c1)OC(O)(C(F)(F)C(F)(F)F)CC2=O (stereo not drawn) [[13]] | 0.24 ± 0.01 | 0.05 | –
7 | COc1ccc2c(=O)cc(C(F)(F)C(F)(F)F)oc2c1 [[1]] | > 1000 | – | –
8 | COc1ccc2c(c1)OC(O)(C(F)(F)C(F)F)CC2=O (stereo not drawn) [[9]] | 0.36 ± 0.4 | – | –
9 | CC(O)C(=O)O (stereo not drawn) [lactate] | – | – | Km (PfFNT [4]): 87 mM
10 | O=C1CC(O)(C(F)(F)C(F)(F)C(F)(F)C(F)(F)F)Oc2ccccc21 (stereo not drawn) [[11]] | 4.9 ± 0.2 | – | –
11 | COc1ccc(C(=O)/C=C(\O)C(F)(F)C(F)(F)F)cc1 [BH-296] | 0.14 ± 0.01 | 3.6 ± 0.2 | less efficient in P. falciparum culture (P. falciparum 3D7; compared with PfFNT block in yeast / MMV007839): 25 times; shift in IC50, resistant versus non-resistant parental parasites [2]: 2.5 fold; IC50 [2]: 8.6 µM
12 | O=C(O)c1cccnc1Nc1cccc(C(F)(F)F)c1 [niflumic acid] | – | – | IC50 (PfFNT [5]): > 100 µM
13 | O=C1CC(O)(C(F)(F)C(F)(F)F)Oc2cc(Cl)ccc21 (stereo not drawn) [[12]] | 0.12 ± 0.01 | 0.28 ± 0.05 | –
14 | COc1ccc2c(c1)C(=O)CC(O)(C(F)F)O2 (stereo not drawn) [[4]] | > 1000 | – | –
15 | O=C1CC(O)(C(F)(F)C(F)(F)F)Oc2ccccc21 (stereo not drawn) [MMV000972] | – | 1.7 | IC50 (PfFNT [1]; [7]): 0.17 µM; hit identification: inhibition of PfFNT transport at 10 μM (PfFNT [3]): fully blocked; inhibition at 10 µM (PfFNT [3]): 102%
16 | COc1ccc2c(c1)OC(O)(C(F)(F)C(F)(F)F)C(C)C2=O (stereo not drawn) [[5]] | 145 ± 8 | – | –
17 | O=C1CC(O)(C(F)(F)C(F)(F)F)Oc2cc(OCc3ccccc3)ccc21 (stereo not drawn) [[15]] | 0.88 ± 0.03 | – | –
18 | COc1ccc2c(c1)OC(O)(C(F)(F)F)CC2=O (stereo not drawn) [[8]] | 1.1 ± 0.1 | – | –
19 | COc1ccc2c(c1)OC(C)(C)CC2=O [[2]] | > 1000 | – | –
20 | O=C1CC(O)(C(F)(F)C(F)F)Oc2ccc(Cl)cc21 (stereo not drawn) [[3]] | 48 ± 2 | – | –
21 | CCO/C(=C\C(=O)c1ccc(OC)cc1)C(F)(F)C(F)(F)F [BH-296 ethyl ester prodrug] | – | 9.3 ± 1.4 | –
22 | CC(=O)C=C(O)C(F)(F)C(F)(F)F [Pharmacophore, 5,5,6,6,6-pentafluoro-4-hydroxyhex-3-en-2-one] | 1.9 | – | –

Source: article PMC5298233, “Substrate-analogous inhibitors exert antimalarial action by targeting the Plasmodium lactate transporter PfFNT at nanomolar scale” (PLoS Pathogens, 2017)
